SMILES strings stand for the structures.

By EC50 is commonly meant the midpoint of the concentration-response curve. Read a low EC50 as higher potency in that assay.

The test concerns YAP/TAZ-TEAD transcription. In words: Reporter gene assay for measuring the inhibition of YAP/TAZ-TEAD transcription. It is filed as cell-based. The following applies: Homo sapiens, HEK-293T; Hek293T cells transiently transfected with TEAD-responsive element luciferase reporter; 24 hours incubation. The protocol: Hek293T cells are cultured in DMEM supplemented with 10% fetal bovine serum, Sodium pyruvate, Sodium bicarbonate, L-glutamine. The cells are harvested and transiently transfected with TEAD-responsive element luciferase reporter. Transfected cells are plated in 384-wells plate containing pre-diluted compounds. After 24 hours incubation at 37° C./5% CO2, assay plates were cooled down to RT and levelled to an equal volume per well, prior to the addition of 25 uL luciferase substrate SteadyLite (Perkin Elmer)/well. The plate was shaken for 10 min at 600 rpm, centrifuged for 1 min at 500 rpm and measured with an Envision reader (PerkinElmer). The amount of relative light units produced by the TEAD reporter is used to calculated percent of inhibition.
The percent of reporter inhibition was calculated in the presence of a positive control inhibitor (100% inhibition) versus a condition with the presence of the vehicle basal activity of the reporter (0% inhibition). The ability of a test compound to inhibit this activity was determined as: Percentage inhibition=[1−((RLU determined in the presence of vehicle−RLU determined for sample with test compound present) divided by (RLU determined in the presence of vehicle−RLU determined for sample with positive control inhibitor))]*100 The activities of example compounds tested are depicted in Table 8. The activity ranges A, B and C refer to IC50 values in the reporter gene assay as follows: “A”: EC50<1 μM; “B”: 1 μM≤EC50≤3.0 μM and “C”: EC50>3.0 μM, NT=not tested.

Take `Cn1ccc(-c2nc(Cc3ccccc3)nc3c2CCN(S(C)(=O)=O)C3)n1` [Cpd. No. 34, 2-benzyl-4-(1-methyl-1H-pyrazol-3-yl)-7-(methylsulfonyl)-5,6,7,8-tetrahydropyrido[3,4-d]pyrimidine]: the EC50 was above 3 µM.
For `CCC(=O)N1CCc2c(nc(Cc3ccccc3)nc2-c2ccn(Cc3cccnc3)n2)C1` [Cpd. No. 36, 1-(2-benzyl-4-(1-(pyridin-3-ylmethyl)-1H-pyrazol-3-yl)-5,8-dihydropyrido[3,4-d]pyrimidin-7(6H)-yl)propan-1-one] the value was 1 to 3 µM; for `CS(=O)(=O)N1CCc2c(nc(Cc3ccccc3)nc2-c2ccn(Cc3cccnc3)n2)C1` [Cpd. No. 37, 2-benzyl-7-(methylsulfonyl)-4-(1-(pyridin-3-ylmethyl)-1H-pyrazol-3-yl)-5,6,7,8-tetrahydropyrido[3,4-d]pyrimidine], above 3 µM.
For `CCC(=O)N1CCc2c(nc(-c3ccccc3)nc2-c2ccn(C)n2)C1` [Cpd. No. 40, 1-(4-(1-methyl-1H-pyrazol-3-yl)-2-phenyl-5,8-dihydropyrido[3,4-d]pyrimidin-7(6H)-yl)propan-1-one] the value was 1 to 3 µM; for `C=CC(=O)N1CCc2c(nc(Cc3ccc(F)cc3)nc2-c2ccn(C)n2)C1` [Cpd. No. 41, 1-(2-(4-fluorobenzyl)-4-(1-methyl-1H-pyrazol-3-yl)-5,8-dihydropyrido[3,4-d]pyrimidin-7(6H)-yl)prop-2-en-1-one], below 1 µM; for `CCC(=O)N1CCc2c(nc(Cc3ccc(F)cc3)nc2-c2ccn(C)n2)C1` [Cpd. No. 42, 1-(2-(4-fluorobenzyl)-4-(1-methyl-1H-pyrazol-3-yl)-5,8-dihydropyrido[3,4-d]pyrimidin-7(6H)-yl)propan-1-one], above 3 µM.
`CCC(=O)N1CCc2c(nc(Cc3cccc(F)c3)nc2-c2ccn(C)n2)C1` [Cpd. No. 44, 1-(2-(3-fluorobenzyl)-4-(1-methyl-1H-pyrazol-3-yl)-5,8-dihydropyrido[3,4-d]pyrimidin-7(6H)-yl)propan-1-one] had an EC50 above 3 µM.
As to `C=CC(=O)N1CCc2c(nc(Cc3ccc(C(F)(F)F)cc3)nc2-c2ccn(C)n2)C1` [Cpd. No. 45, 1-(4-(1-methyl-1H-pyrazol-3-yl)-2-(4-(trifluoromethyl)benzyl)-5,8-dihydropyrido[3,4-d]pyrimidin-7(6H)-yl)prop-2-en-1-one], the EC50 was below 1 µM.
In turn, `CCC(=O)N1CCc2c(nc(Cc3ccc(C(F)(F)F)cc3)nc2-c2ccn(C)n2)C1` [Cpd. No. 47, 1-(4-(1-methyl-1H-pyrazol-3-yl)-2-(4-(trifluoromethyl)benzyl)-5,8-dihydropyrido[3,4-d]pyrimidin-7(6H)-yl)propan-1-one] showed an EC50 above 3 µM.
Then `CCC(=O)N1CCc2c(nc(Cc3cccc(C(F)(F)F)c3)nc2-c2ccn(C)n2)C1` [Cpd. No. 48, 1-(4-(1-methyl-1H-pyrazol-3-yl)-2-(3-(trifluoromethyl)benzyl)-5,8-dihydropyrido[3,4-d]pyrimidin-7(6H)-yl)propan-1-one], with 1 to 3 µM; and `C=CC(=O)N1CCc2c(nc(Cc3cccc(C(F)(F)F)c3)nc2-c2ccn(Cc3cccnc3)n2)C1` [Cpd. No. 50, 1-(4-(1-(pyridin-3-ylmethyl)-1H-pyrazol-3-yl)-2-(3-(trifluoromethyl)benzyl)-5,8-dihydropyrido[3,4-d]pyrimidin-7(6H)-yl)prop-2-en-1-one], with below 1 µM.
For `C=CC(=O)N1CCc2c(nc(-c3ccccc3)nc2-c2cnn(C)c2)C1` [Cpd. No. 56] the value was below 1 µM; for `C=CC(=O)N1CCc2c(nc(-c3ccccc3)nc2-c2cnn(C(C)C)c2)C1` [Cpd. No. 57, 1-(4-(1-isopropyl-1H-pyrazol-4-yl)-2-phenyl-5,8-dihydropyrido[3,4-d]pyrimidin-7(6H)-yl)prop-2-en-1-one], 1 to 3 µM; for `C=CC(=O)N1CCc2c(nc(-c3ccccc3)nc2C(=O)NCc2cccnc2)C1` [Cpd. No. 58, 7-acryloyl-2-phenyl-N-(pyridin-3-ylmethyl)-5,6,7,8-tetrahydropyrido[3,4-d]pyrimidine-4-carboxamide], 1 to 3 µM.

Values taken from patent US12516064B2, “Tetrahydropyridopyrimidines and related analogs for inhibiting YAP/TAZ-TEAD” (THE KATHOLIEKE UNIVERSITEIT LEUVEN, priority 2022, dated 2026).
